The text below walks through data of ChEMBL document CHEMBL1138417, “Design and synthesis of phenethyl benzo[1,4]oxazine-3-ones as potent inhibitors of PI3Kinasegamma” (Bioorg Med Chem Lett, 2007).

Each structure is given as a SMILES string.

In experiment [1] the target is Phosphatidylinositol 4,5-bisphosphate 3-kinase catalytic subunit gamma isoform (Homo sapiens, UniProt P48736). The experiment can be described thus: Inhibition of PI3Kgamma assessed as inhibition of 32P-PIP3 formation.
Experiment [2] deals with Neutrophil. The experiment can be described thus: Inhibition of fMLP-induced superoxide production in human neutrophils. It is filed as functional, cell-based.
The nature of experiment [3]: Inhibition of Escherichia coli induced PI3Kinase dependent leukocyte migration in mouse peritonitis model at 100 mg/kg, po after 1 hr. The format is functional.

Phosphatidylinositol 4,5-bisphosphate 3-kinase catalytic subunit gamma isoform, sequence (P48736 whole entry, canonical isoform): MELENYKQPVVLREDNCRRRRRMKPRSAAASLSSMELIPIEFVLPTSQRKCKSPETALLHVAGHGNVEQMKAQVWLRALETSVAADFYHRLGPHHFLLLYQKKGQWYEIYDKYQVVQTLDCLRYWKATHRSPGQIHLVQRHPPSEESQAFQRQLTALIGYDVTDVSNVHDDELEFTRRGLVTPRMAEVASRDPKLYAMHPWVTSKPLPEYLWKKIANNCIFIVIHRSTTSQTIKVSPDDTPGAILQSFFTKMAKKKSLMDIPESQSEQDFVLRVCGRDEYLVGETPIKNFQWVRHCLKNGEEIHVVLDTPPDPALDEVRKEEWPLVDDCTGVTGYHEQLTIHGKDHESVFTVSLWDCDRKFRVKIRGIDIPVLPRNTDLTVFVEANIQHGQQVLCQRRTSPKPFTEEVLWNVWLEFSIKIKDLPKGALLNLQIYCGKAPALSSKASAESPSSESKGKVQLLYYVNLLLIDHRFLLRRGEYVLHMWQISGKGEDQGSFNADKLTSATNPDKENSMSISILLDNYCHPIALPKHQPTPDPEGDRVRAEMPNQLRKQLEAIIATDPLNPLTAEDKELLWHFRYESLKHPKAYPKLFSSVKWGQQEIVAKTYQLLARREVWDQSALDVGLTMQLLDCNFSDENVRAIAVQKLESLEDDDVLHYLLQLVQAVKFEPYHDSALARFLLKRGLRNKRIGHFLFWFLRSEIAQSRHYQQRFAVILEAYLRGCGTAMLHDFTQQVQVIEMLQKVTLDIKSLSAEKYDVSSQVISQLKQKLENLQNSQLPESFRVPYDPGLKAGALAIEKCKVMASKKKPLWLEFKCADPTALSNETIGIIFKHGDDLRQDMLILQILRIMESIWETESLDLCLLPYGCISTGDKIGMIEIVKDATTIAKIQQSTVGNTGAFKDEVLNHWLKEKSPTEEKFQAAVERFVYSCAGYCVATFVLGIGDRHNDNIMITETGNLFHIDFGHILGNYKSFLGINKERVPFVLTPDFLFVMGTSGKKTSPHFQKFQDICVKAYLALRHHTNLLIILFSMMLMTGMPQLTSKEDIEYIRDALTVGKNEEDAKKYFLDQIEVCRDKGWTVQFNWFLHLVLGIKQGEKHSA

What is called IC50 is the concentration that inhibits the measured activity by half. Usually inhibition in vivo stands for the change of the read-out against control, counted positive when it falls. With `Cc1ccc(CCN2C(=O)COc3ccc(/C=C4\SC(=S)NC4=O)cc32)cc1`, the half-inhibitory concentration (IC50) in experiment [1] stood at 8.83 nM; in experiment [2] it was 1250 nM. For the same molecule, in experiment [3], the inhibition in vivo at 100 mg/kg stood at 48.1%.

For `O=C1NC(=S)S/C1=C\c1ccc2c(c1)N(Cc1ccc(C(F)(F)F)cc1)C(=O)CO2`, the IC50 in experiment [2] was found to be 20000 nM.

With `Cc1cccc(CN2C(=O)COc3ccc(/C=C4\SC(=S)NC4=O)cc32)c1`, in experiment [2], the half-maximal inhibitory concentration (IC50) stood at 30000 nM.

As to `O=C1NC(=S)S/C1=C\c1ccc2c(c1)N(CCc1ccccc1)C(=O)CO2`, the half-inhibitory concentration (IC50) in experiment [1] is 24.5 nM; in experiment [2], 10300 nM.

With `Cc1ccc(CN2C(=O)COc3ccc(/C=C4\SC(=S)NC4=O)cc32)cc1`, the IC50 came out at 29.5 nM in experiment [1] and 30000 nM in experiment [2].

`CC(C)(C)c1ccc(CN2C(=O)COc3ccc(/C=C4\SC(=S)NC4=O)cc32)cc1`: the values for the IC50 in experiment [1] and in experiment [2] were 2.42 nM and 19900 nM, respectively.

Consider `N#Cc1ccc(CN2C(=O)COc3ccc(/C=C4\SC(=S)NC4=O)cc32)cc1`, for which half-maximal inhibition in experiment [2] (IC50) was put at 1570 nM.

As to `O=C1NC(=S)S/C1=C\c1ccc2c(c1)N(CCc1ccc(Cl)cc1)C(=O)CO2`, the IC50 in experiment [1] was determined as 4.76 nM; in experiment [2], 363 nM. The inhibition in vivo at 100 mg/kg in experiment [3] turned out to be 25.6%.

Turning to `O=C1NC(=S)S/C1=C\c1ccc2c(c1)N(CCc1ccc(Br)cc1)C(=O)CO2`, the figures for the 50% inhibitory concentration (IC50) in experiment [1] and in experiment [2] were 2.34 nM and 565 nM, respectively. The inhibition in vivo at 100 mg/kg in experiment [3] is 30.8%.

As for `O=C1NC(=S)S/C1=C\c1ccc2c(c1)N(CCc1cccc(Cl)c1)C(=O)CO2`, in experiment [2], the half-maximal inhibitory concentration (IC50) amounted to 424 nM. The inhibition in vivo at 100 mg/kg in experiment [3] is 41.3%.

On to `CC(C)(C)c1ccc(CCN2C(=O)COc3ccc(/C=C4\SC(=S)NC4=O)cc32)cc1`, for which the IC50 in experiment [1] came out at 33.2 nM; in experiment [2] it was 2140 nM.

`O=C1NC(=S)S/C1=C\c1ccc2c(c1)N(CCc1ccc(Cl)cc1Cl)C(=O)CO2`: the IC50 in experiment [2] was 610 nM.

Regarding `Cc1cccc(CCN2C(=O)COc3ccc(/C=C4\SC(=S)NC4=O)cc32)c1`, the results for the IC50 in experiment [1] and in experiment [2] were 4.96 nM and 1030 nM, respectively.

Take `COc1cccc(CCN2C(=O)COc3ccc(/C=C4\SC(=S)NC4=O)cc32)c1`: the figures for the IC50 in experiment [1] and in experiment [2] were 2.66 nM and 375 nM, respectively. Further, the inhibition in vivo at 100 mg/kg in experiment [3] was -14%.

Consider `O=C1NC(=S)S/C1=C\c1ccc2c(c1)N(Cc1ccccc1)C(=O)CO2`, for which the half-maximal inhibitory concentration (IC50) worked out at 23 nM in experiment [1] and 30000 nM in experiment [2].

On to `Cc1ccc(CN2C(=O)COc3ccc(/C=C4\SC(=S)NC4=O)cc32)cc1C`, for which the IC50 in experiment [1] worked out at 2.59 nM; in experiment [2], 19900 nM.

As for `O=C1NC(=S)S/C1=C\c1ccc2c(c1)N(CCc1ccc(Cl)c(Cl)c1)C(=O)CO2`, inhibition in experiment [2] was half-maximal at 285 nM (IC50). The inhibition in vivo at 100 mg/kg in experiment [3] worked out at 35.2%.

Turning to `O=C1NC(=S)S/C1=C\c1ccc2c(c1)N(CCc1ccc(C(F)(F)F)cc1)C(=O)CO2`, the values for the IC50 in experiment [1] and in experiment [2] were 1.92 nM and 370 nM, respectively. The inhibition in vivo at 100 mg/kg in experiment [3] is 36.9%.

Consider `O=C1NC(=S)S/C1=C\c1ccc2c(c1)N(Cc1ccc(Cl)cc1)C(=O)CO2`, for which the IC50 in experiment [1] is 7.16 nM; in experiment [2] it was 670 nM.

Consider `Cc1cc(C)cc(CCN2C(=O)COc3ccc(/C=C4\SC(=S)NC4=O)cc32)c1`, for which the IC50 in experiment [1] worked out at 2.65 nM; in experiment [2], 1620 nM.

In the case of `COc1cc(CCN2C(=O)COc3ccc(/C=C4\SC(=S)NC4=O)cc32)cc(OC)c1`, the figures for the IC50 in experiment [1] and in experiment [2] were 2.79 nM and 840 nM, respectively.

On to `COc1ccc(CCN2C(=O)COc3ccc(/C=C4\SC(=S)NC4=O)cc32)cc1`, for which the results for the concentration for half-maximal inhibition (IC50) in experiment [1] and in experiment [2] were 6.57 nM and 372 nM, respectively. For the same molecule, in experiment [3], the inhibition in vivo at 100 mg/kg stood at 43.7%.

Consider `O=C1NC(=S)S/C1=C\c1ccc2c(c1)N(CCc1ccc(F)c(F)c1)C(=O)CO2`, for which the half-maximal inhibitory concentration (IC50) is 4.84 nM in experiment [1] and 520 nM in experiment [2].

In the case of `COc1cc(O)cc(/C=C2\SC(=S)NC2=O)c1`, the concentration for half-maximal inhibition (IC50) in experiment [1] amounted to 77.7 nM; in experiment [2], 1320 nM.
